target: T1, Human IDO (Homo sapiens, UniProt P14902); assay: HeLa cell IDO assay (IFNγ-treated cells, N-formylkynurenine by RapidFire/MS/MS); format: cell-based; settings: 25 ng/ml IFNγ, 200 μM Trp, 48 hours, class symbol
T1 construct: High control is Hela cells with IFNγ treatment; endogenous in cells; host or cells: HeLa cells treated with 25 ng/ml IFNγ
T1 sequence (P14902 whole entry): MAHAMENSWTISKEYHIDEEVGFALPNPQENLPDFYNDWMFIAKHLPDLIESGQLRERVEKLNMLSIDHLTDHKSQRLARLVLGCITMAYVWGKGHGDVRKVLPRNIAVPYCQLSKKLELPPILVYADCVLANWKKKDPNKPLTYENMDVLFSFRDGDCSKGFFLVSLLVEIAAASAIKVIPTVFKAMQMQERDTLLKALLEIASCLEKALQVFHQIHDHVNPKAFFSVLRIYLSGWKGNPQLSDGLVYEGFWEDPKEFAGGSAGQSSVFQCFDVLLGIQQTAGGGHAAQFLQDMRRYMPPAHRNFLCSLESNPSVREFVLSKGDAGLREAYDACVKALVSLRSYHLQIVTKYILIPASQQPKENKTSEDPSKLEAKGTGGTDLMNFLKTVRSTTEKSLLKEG

Compound	IC50 [nM]
O=C(NC1(C2CCC(c3ccnc4ccc(F)cc34)CC2)CC1)c1ccc(Cl)cc1 (stereo not shown) [Compound 23-5A, 4-chloro-N-(1-(4-(6-fluoroquinolin-4-yl)cyclohexyl)cyclopropyl)-benzamide]	< 100
O=C(Nc1ccc(Cl)cc1)C1CC12CCC(c1ccnc3ccncc13)CC2 (racemic) [Compound 6-9, N-(4-chlorophenyl)-6-(1,6-naphthyridin-4-yl)spiro[2.5]octane-1-carboxamide]	< 100
COc1cc2nccc([C@H]3CC[C@@]4(CC3)C[C@@H]4C(=O)Nc3ccc(Cl)cc3)c2cc1OC [Compound 8-4C]	< 100
O=C(N[C@H]1CC2(CC[C@H](c3ccnc4ccncc43)CC2)C1)c1ccc(Cl)cc1 (single isomer, unassigned) [Compound 21-4]	< 100
O=C(Nc1cccc(C(F)(F)F)c1)[C@H]1C[C@]12CC[C@H](c1ccnc3ccc(F)cc31)CC2 [Compound 1-17]	> 1000
O=C(Nc1ccc(Cl)cc1)C1CC12CCN(c1ccnc3ccc(F)cc13)CC2 (single isomer, unassigned) [Compound 12-7, N-(4-chlorophenyl)-6-(6-fluoroquinolin-4-yl)-6-azaspiro[2.5]octane-1-carboxamide]	> 1000
O=C(NC1CC12CCN(c1ccnc3ccc(F)cc13)CC2)c1ccc(Cl)cc1 (stereo not shown) [Compound 13-3, 4-chloro-N-(6-(6-fluoroquinolin-4-yl)-6-azaspiro[2.5]octan-1-yl)benzamide]	100 to 1000
O=C(Nc1ccc(Cl)cc1)C1CC12CCC(c1ccnc3ccncc13)CC2 (single isomer, unassigned) [Compound 7-6, N-(4-chlorophenyl)-6-(1,6-naphthyridin-4-yl)spiro[2.5]octane-1-carboxamide]	< 100
O=C(Nc1ccc(Cl)cc1)C1CC2(CCC(c3ccnc4ccncc34)CC2)C1 (single isomer, unassigned) [Compound 20-8, N-(4-chlorophenyl)-7-(1,6-naphthyridin-4-yl)spiro[3.5]nonane-2-carboxamide]	< 100
O=C([C@H]1C[C@]12CC[C@H](c1ccnc3ccc(F)cc31)CC2)N1CCC(C(F)(F)F)CC1 [Compound 1-20]	> 1000

Now from value to molecule:

IC50 [nM]	Compound
100 to 1000	O=C(NC1CC2(CCC(c3ccnc4ccc(F)cc34)CC2)C1)c1ccc(Cl)cc1 (single isomer, unassigned) [Compound 17-7, 4-chloro-N-(7-(6-fluoroquinolin-4-yl)spiro[3.5]nonan-2-yl)benzamide]
< 100	O=C(Nc1ccc(Cl)cc1)C1([C@H]2CC[C@@H](c3ccnc4ccc(F)cc43)CC2)CC1 [Compound 24-5A, N-(4-chlorophenyl)-1-(4-(6-fluoroquinolin-4-yl)cyclohexyl)cyclopropyl-1-carboxamide]
< 100	O=C(NC1CC12CCC(c1ccnc3ccc(F)cc13)CC2)c1ccc(Cl)cc1 (single isomer, unassigned) [Compound 9-4, 4-chloro-N-(6-(6-fluoroquinolin-4-yl)spiro[2.5]octan-1-yl)benzamide]
< 100	CC1(C(=O)Nc2ccc(Cl)cc2)CC12CCC(c1ccnc3ccc(F)cc13)CC2 (single isomer, unassigned) [Compound 11-5, N-(4-chlorophenyl)-6-(6-fluoroquinolin-4-yl)-1-methylspiro[2.5]octane-1-carboxamide]
< 100	N#Cc1ccc(NC(=O)C2CC23CCC(c2ccnc4ccc(F)cc24)CC3)cc1 (stereo not shown) [Compound 2-1, N-(4-cyanophenyl)-6-(6-fluoroquinolin-4-yl)spiro[2.5]octane-1-carboxamide]
> 1000	O=C(Nc1ccc(Cl)cc1)C1CC2(CCC(c3ccnc4ccc(F)cc34)CC2)C1 (single isomer, unassigned) [Compound 16-8, N-(4-chlorophenyl)-7-(6-fluoroquinolin-4-yl)spiro[3.5]nonane-2-carboxamide]
< 100	Cc1ccc(NC(=O)[C@H]2C[C@]23CC[C@H](c2ccnc4ccc(F)cc42)CC3)cc1 [Compound 1-14]
> 1000	O=C(NC1CCC12CCC(c1ccnc3ccc(F)cc13)CC2)c1ccc(Cl)cc1 (stereo not shown) [Compound 14-7, 4-chloro-N-(7-(6-fluoroquinolin-4-yl)spiro[3.5]nonan-1-yl)benzamide]
< 100	O=C(Nc1ccc(Cl)cc1)C1(C2CCN(c3ccnc4ccc(F)cc34)CC2)CC1 [Compound 26-8, N-(4-chlorophenyl)-1-[1-(6-fluoroquinolin-4-yl)piperidin-4-yl]cyclopropane-1-carboxamide]
